As a reminder, the solubility is the concentration that dissolves in the medium under given conditions. As a reminder, the LD50 is the dose at which mortality reaches 50%.

Data set [1] has as its system Gram-positive and Gram-negative bacteria, mycoplasmas. As to the kind of experiment: Antimicrobial activity (overall, in words). Type of data set: cell-based.
Data set [2] concerns Staphylococcus aureus KB-210 (ATCC 6538P). As to the kind of experiment: Antibacterial activity, minimum inhibitory concentration (MIC). The class given is cell-based. The note with it: ATCC6538P.
In data set [3] the test system is Bacillus subtilis KB-211 (ATCC 6633). Described as above. The class given is cell-based.
Data set [4] has as its system Bacillus cereus KB-143 (IFO 3001). The data set is described as above. Type of data set: cell-based.
Data set [5] relates to Micrococcus luteus KB-212 (ATCC 9341). Described as above. Type of data set: cell-based.
Data set [6] deals with Escherichia coli KB-176 (NIHJ JC-2). The data set is described as above. Type of data set: cell-based.
For data set [7], the system named is Salmonella typhimurium KB-20. The description is as above. Type of data set: cell-based. Particulars: Salmonella enterica.
For data set [8], the system named is Klebsiella pneumoniae KB-214 (ATCC 10031). The data set is described as above. Type of data set: cell-based.
Data set [9] relates to Proteus vulgaris KB-127 (IFO 3167). The description is as above. The class given is cell-based.
The test system of data set [10] is Pseudomonas aeruginosa KB-115 (IFO 3080). Described as above. Type of data set: cell-based.
The test system of data set [11] is Clostridium perfringens (ATCC 13124). As to the kind of experiment: microbe, parasite or virus in culture. The class given is cell-based. Particulars: ATCC13124.
Data set [12] concerns Peptococcus variabilis KB-235 (ATCC 14955). As to the kind of experiment: Antibacterial activity, minimum inhibitory concentration (MIC). The class given is cell-based.
Data set [13] has as its system Bacteroides fragilis KB-169 (ATCC 23749). The data set is described as above. The class given is cell-based.
Data set [14] has as its system Mycoplasma gallisepticum KB-171 (S-6). The description is as above. Type of data set: cell-based. The note with it: Mycoplasmoides gallisepticum.
In data set [15] the test system is Mycoplasma pneumoniae KB-173. Described as above. The class given is cell-based.
The subject of data set [16] is Acholeplasma laidlawii KB-174 (PG-8). The description is as above. The class given is cell-based.
The nature of data set [17]: Solubility in different solvents. Type of data set: physicochemical. Particulars: organic solvent or mixture. From the text: Compounds (1) of the present invention had the following solubilities in different solvents.
The nature of data set [18]: Acute toxicity test by oral administration. Particulars: mouse, in vivo.
The subject of data set [19] is Clostridium difficile (ATCC 9689). As to the kind of experiment: Antibacterial activity, minimum inhibitory concentration (MIC). Type of data set: cell-based. The note with it: Clostridioides difficile, ATCC9689.
The test system of data set [20] is Bifidobacterium bifidum (ATCC 11146). The data set is described as above. Type of data set: cell-based.
A further data set is described as follows: in vivo. The note with it: mouse, po.
Setting [21] is: acetic acid, read-out: Solubility in Acetic acid.
Setting [22] is: dmso, read-out: Solubility in DMSO.
[23] abbreviates: methanol, read-out: Solubility in Methanol.
The mark [24] stands for this setting: inoculum 1 × 10^6 cells/ml, 37° C., read-out: MIC.
Where [25] appears, read: ATCC6633, inoculum 1 × 10^6 cells/ml, 37° C., read-out: MIC.
The mark [26] stands for this setting: IFO3001, inoculum 1 × 10^6 cells/ml, 37° C., read-out: MIC.
[27] abbreviates: ATCC9341, inoculum 1 × 10^6 cells/ml, 37° C., read-out: MIC.
Where [28] appears, read: NIHJJC2, inoculum 1 × 10^6 cells/ml, 37° C., read-out: MIC.
Where [29] appears, read: ATCC10031, inoculum 1 × 10^6 cells/ml, 37° C., read-out: MIC.
[30] abbreviates: IFO3167, inoculum 1 × 10^6 cells/ml, 37° C., read-out: MIC.
[31] abbreviates: IFO3080, inoculum 1 × 10^6 cells/ml, 37° C., read-out: MIC.
Setting [32] is: ATCC23749, inoculum 1 × 10^6 cells/ml, 37° C., read-out: MIC.
Setting [33] is: ATCC11146, inoculum 1 × 10^6 cells/ml, 37° C., read-out: MIC.

In brackets after ≈: the same amount, converted by molar mass. Read-outs that look alike come from different tables or passages of the source.

On to `COc1cc2oc3c(c(=O)c2cc1OC)C(=O)c1c(ccc2c(C)c4c(c(OC)c12)C(=O)N1CCOC1(C)C4)C3=O` (centres unmarked) [C,O-dimethyl Cervinomycin A2], for which the antimicrobial activity result in data set [1] is “substantially equal to those of Cervinomycin A1 and A2”.
For `COc1cc2oc3c(c(=O)c2cc1OC)C(=O)c1c(ccc2c(C)c4c(c(O)c12)C(=O)N1CCOC1(C)C4)C3=O` (centres unmarked) [C-methyl Cervinomycin A2], the antimicrobial activity result in data set [1] was “substantially equal to those of Cervinomycin A1 and A2”.
`COc1cc2oc3c(O)c4ccc5cc6c(c(O)c5c4c(O)c3c(=O)c2cc1OC)C(=O)N1CCOC1(C)C6` (centres unmarked) [Cervinomycin A1, reference compound]: the MIC in [2] is 5 µg/mL (≈ 9.44 µM); in data set [3] (ATCC6633), 2.5 µg/mL (≈ 4.72 µM); in [4] (IFO3001), 10 µg/mL (≈ 18.9 µM); in data set [5] (ATCC9341) it was 5 µg/mL (≈ 9.44 µM); in [6] (NIHJJC2) it was more than 10 µg/mL; in data set [7], more than 10 µg/mL. Further, the MIC in data set [8] (ATCC10031) is more than 10 µg/mL; in data set [9] (IFO3167), more than 10 µg/mL; in data set [10] (IFO3080) it was more than 10 µg/mL; in [11], 1.25 µg/mL (≈ 2.36 µM); in data set [12], 0.62 µg/mL (≈ 1.17 µM); in data set [13] (ATCC23749), 1.25 µg/mL (≈ 2.36 µM). Moreover, the MIC in data set [14], in [15] (KB173) and in data set [16] was 12.5 µg/mL (≈ 23.6 µM) throughout. Further, the solubility in [17] (setting [21]) turned out to be 23 µg/mL (≈ 43.4 µM); in data set [17] (setting [22]) it was 78 µg/mL (≈ 147 µM); in data set [17] (setting [23]), 0.3 µg/mL (≈ 0.567 µM). In [18], this molecule showed an LD50 of 320 mg/kg.
As for `CCC[C@@H]1C[C@@H](C(=O)N[C@@H]([C@H]2O[C@H](SC)[C@H](O)[C@@H](O)[C@H]2O)[C@H](C)Cl)N(C)C1` [Clindamycin, reference compound], the MIC is 0.16 µg/mL (≈ 0.376 µM) in data set [2] (setting [24]); 2.5 µg/mL (≈ 5.88 µM) in [3] (setting [25]); 0.63 µg/mL (≈ 1.48 µM) in [4] (setting [26]); 0.04 µg/mL (≈ 0.0941 µM) in [5] (setting [27]); more than 10 µg/mL in data set [6] (setting [28]); more than 10 µg/mL in data set [7]. Moreover, the MIC is more than 10 µg/mL in [8] (setting [29]); more than 10 µg/mL in data set [9] (setting [30]); more than 10 µg/mL in data set [10] (setting [31]); 0.4 µg/mL (≈ 0.941 µM) in data set [11]; 6.3 µg/mL (≈ 14.8 µM) in data set [19] (setting [24]); 0.16 µg/mL (≈ 0.376 µM) in data set [12] (setting [24]). For the same molecule, the MIC in data set [13] (setting [32]) amounted to 0.08 µg/mL (≈ 0.188 µM); in data set [20] (setting [33]) it was 0.02 µg/mL (≈ 0.0471 µM); in data set [14], 0.62 µg/mL (≈ 1.46 µM); in [15] (KB173), 0.62 µg/mL (≈ 1.46 µM); in data set [16], 0.62 µg/mL (≈ 1.46 µM).
Take `COc1cc2oc3c(c(=O)c2cc1OC)C(=O)c1c(ccc2cc4c(c(OC(C)=O)c12)C(=O)N1CCOC1(C)C4)C3=O` (centres unmarked) [Monoacetyl Cervinomycin A2, monoacetyl Cervinomycin A2]: the MIC in [2] (setting [24]) is 0.31 µg/mL (≈ 0.544 µM); in [3] (setting [25]), 0.08 µg/mL (≈ 0.14 µM); in [4] (setting [26]), 0.16 µg/mL (≈ 0.281 µM); in data set [5] (setting [27]) it was 0.4 µg/mL (≈ 0.702 µM); in data set [6] (setting [28]), more than 10 µg/mL; in [7] (setting [24]), more than 10 µg/mL. Also, the MIC is more than 10 µg/mL in [8] (setting [29]); more than 10 µg/mL in data set [9] (setting [30]); more than 10 µg/mL in [10] (setting [31]); 0.02 µg/mL (≈ 0.0351 µM) in data set [11]; 0.05 µg/mL (≈ 0.0878 µM) in data set [19] (setting [24]); 0.1 µg/mL (≈ 0.176 µM) in data set [13] (setting [32]). Further, the MIC in data set [20] (setting [33]) came out at 0.2 µg/mL (≈ 0.351 µM); in data set [14] (setting [24]), 1.25 µg/mL (≈ 2.19 µM); in data set [15] (KB173, inoculum 1 × 10^6 cells/ml, 37° C., read-out: MIC), 0.6 µg/mL (≈ 1.05 µM); in [16] (setting [24]), 1.25 µg/mL (≈ 2.19 µM). For the same molecule, the solubility in [17] (setting [21]) came to 3000 µg/mL (≈ 5270 µM); in data set [17] (setting [22]) it was 5000 µg/mL (≈ 8780 µM); in [17] (setting [23]), 300 µg/mL (≈ 527 µM). The same molecule displayed an LD50 in the data set “in vivo” of 1800 mg/kg.
For the molecule `COc1cc2oc3c(c(=O)c2cc1OC)C(=O)c1c(ccc2cc4c(c(OC)c12)C(=O)N1CCOC1(C)C4)C3=O` (centres unmarked) [O-methyl Cervinomycin A2], the antimicrobial activity result in [1] is “substantially equal to those of Cervinomycin A1 and A2”.
Consider `COc1cc2oc3c(OC(C)=O)c4ccc5cc6c(c(OC(C)=O)c5c4c(OC(C)=O)c3c(=O)c2cc1OC)C(=O)N1CCOC1(C)C6` (centres unmarked) [Triacetyl Cervinomycin A1, triacetyl Cervinomycin A1], for which the MIC in [2] is 0.16 µg/mL (≈ 0.244 µM); in data set [3] (ATCC6633), more than 0.02 µg/mL; in data set [4] (IFO3001), 0.31 µg/mL (≈ 0.473 µM); in data set [5] (ATCC9341), 0.08 µg/mL (≈ 0.122 µM); in data set [6] (NIHJJC2) it was more than 10 µg/mL; in data set [7], more than 10 µg/mL. Besides, the MIC in data set [8] (ATCC10031) is more than 10 µg/mL; in data set [9] (IFO3167), more than 10 µg/mL; in data set [10] (IFO3080) it was more than 10 µg/mL; in [11] it was 0.02 µg/mL (≈ 0.0305 µM); in [19], 0.05 µg/mL (≈ 0.0763 µM); in [12], 0.02 µg/mL (≈ 0.0305 µM). For the same molecule, the MIC in [13] (ATCC23749) was found to be 0.1 µg/mL (≈ 0.153 µM); in [20] (ATCC11146) it was 0.2 µg/mL (≈ 0.305 µM); in data set [14] it was 0.156 µg/mL (≈ 0.238 µM); in data set [15] (KB173), 0.156 µg/mL (≈ 0.238 µM); in [16], 0.312 µg/mL (≈ 0.476 µM). Moreover, the solubility in data set [17] (setting [21]) is more than 25000 µg/mL; in data set [17] (setting [22]), more than 50000 µg/mL; in data set [17] (setting [23]) it was 1400 µg/mL (≈ 2140 µM). The same molecule returned an LD50 in data set [18] of 1620 mg/kg.

Values taken from US4886884A, “Derivatives from cervinomycin based antibiotics” (The Kitazato Institute, priority 1986, dated 1989).
